Measured values reported in patent publication US9834526B2 (MERCK SHARP & DOHME CORP., priority 2013, dated 2017).

What follows are compounds tested against T1, wildtype HIV-1 protease (Human immunodeficiency virus type 1 group M subtype B, UniProt P04585) (assay: Inhibition of microbial expressed HIV protease (Pepcleav)). Conditions: wild type HIV-1 protease expressed in E. coli, 20 pM enzyme, 400 micromolar peptide substrate, pH 5.5, LC-MS readout; mean of at least two independent experiments.
T1 construct: preincubated with the HIV-1 protease (wild type) enzyme in assay buffer; made in house; host or cells: Escherichia coli
Format: biochemical
Protocol: Assay for Inhibition of Microbial Expressed HIV Protease (“Pepcleav”)
Studies of the inhibition of the wildtype HIV-1 protease (which was expressed in Escherichia coli) were carried out with a peptide substrate [Val-Ser-Gln-Asn-(βnaphthyl)Ala-Pro-Ile-Val (SEQ ID NO:1)]. The inhibitor was first preincubated with the HIV-1 protease (wild type) enzyme in assay buffer (50 mM sodium acetate, pH 5.5, 100 mM NaCl, and 0.1% BSA) for 30 minutes at room temperature. Substrate was added to 400 micromolar in a total volume of 20 microliters containing 20 picomolar HIV-1 protease (final) and the reaction was incubated for 1 hour at 30° C. The reaction was quenched with the addition of formic acid and indinavir to 0.012% and 150 nM final concentrations, respectively. The product formation was determined after separation of product and substrate on a Zorbax Eclipse XDB-C18 column connected to an API 4000 mass spectrometer (Applied Biosystems) with multiple reaction monitoring (transitions were 644.5/428.9 and 615.4/422.2 (M1/M3) for product and indinavir respectively). The extent of inhibition of the reaction was determined from the peak area of the products. Analysis of the products, independently synthesized, provided quantitation standards and confirmation of the product composition.

Compared with `COC(=O)N[C@H](C(=O)Nc1ccccc1CC[C@@H]1CN[C@H](COC(=O)NCC(F)(F)F)[C@@H](CO)O1)C(c1ccccc1)c1ccccc1` [Example 46, N-(2-{2-[(2R,5R,6S)-6-(hydroxymethyl)-5-({[(2,2,2-trifluoroethyl)carbamoyl]oxy}methyl)morpholin-2-yl]ethyl}phenyl)-Nα-(methoxycarbonyl)-β-phenyl-L-phenylalaninamide], `N[C@H](C(=O)Nc1cccc(F)c1CC[C@@H]1CN[C@H](CO)[C@@H](COC(=O)NCC(F)(F)F)O1)C(c1ccc(F)cc1)c1ccc(F)cc1` [Example 63, 4-fluoro-N-(3-fluoro-2-{2-[(2R,5R,6S)-5-(hydroxymethyl)-6-({[(2,2,2-trifluoroethyl)carbamoyl]oxy}methyl)morpholin-2-yl]ethyl}phenyl)-β-(4-fluorophenyl)-L-phenylalaninamide] is 2-fold higher in IC50: 65 nM for the first, 130 nM for the second.

`C[C@H]1O[C@H](CCc2c(F)cccc2NC(=O)[C@@H](N)C(c2ccc(F)cc2)c2ccc(F)cc2)CN[C@@H]1COC(=O)NCc1ccc(F)cc1` [Example 48, 4-fluoro-N-(3-fluoro-2-{2-[(2R,5R,6R)-5-({[(4-fluorobenzyl)carbamoyl]oxy}methyl)-6-methylmorpholin-2-yl]ethyl}phenyl)-β-(4-fluorophenyl)-L-phenylalaninamide] and `CC(C)[C@@H](NC(=O)OC[C@H]1NC[C@@H](CCc2c(F)cccc2NC(=O)[C@@H](N)C(c2ccc(F)cc2)c2ccc(F)cc2)O[C@H]1C)c1ccc(F)cc1` [Example 58, 4-fluoro-N-[3-fluoro-2-(2-{(2R,5R,6S)-5-[({[(1R)-1-(4-fluorophenyl)-2-methylpropyl]carbamoyl}oxy)methyl]-6-methylmorpholin-2-yl}ethyl)phenyl]-β-(4-fluorophenyl)-L-phenylalaninamide] are within 1.5-fold of each other in IC50: 5.8 nM for the first, 6.9 nM for the second.

Compared with `C[C@@H]1O[C@H](CCc2c(F)cccc2NC(=O)[C@@H](N)C(c2ccc(F)cc2)c2ccc(F)cc2)CN[C@@H]1CO` [Example 49, 4-fluoro-N-(3-fluoro-2-{2-[(2R,5R,6S)-5-(hydroxymethyl)-6-methylmorpholin-2-yl]ethyl}phenyl)-β-(4-fluorophenyl)-L-phenylalaninamide], `C[C@@H]1O[C@H](CCc2c(F)cccc2NC(=O)[C@@H](N)C(c2ccc(F)cc2)c2ccc(F)cc2)CN[C@@H]1COC(=O)NCC(F)(F)F` [Example 50, 4-fluoro-N-(3-fluoro-2-{2-[(2R,5R,6S)-6-methyl-5-({[(2,2,2-trifluoroethyl)carbamoyl]oxy}methyl)morpholin-2-yl]ethyl}phenyl)-β-(4-fluorophenyl)-L-phenylalaninamide] is 13-fold lower in IC50: 400 nM for the first, 30 nM for the second. The second is the more potent here.

Going from `C[C@H]1O[C@H](COc2c(F)cncc2NC(=O)[C@@H](N)C(c2ccc(F)cc2)c2ccc(F)cc2)CN[C@@H]1COC(=O)NCC(F)(F)F` [Example 51, 4-fluoro-N-(5-fluoro-4-{[(2S,5R,6R)-6-methyl-5-({[(2,2,2-trifluoroethyl)carbamoyl]oxy}methyl)morpholin-2-yl]methoxy}pyridin-3-yl)-β-(4-fluorophenyl)-L-phenylalaninamide] to `C[C@@H]1O[C@H](CCc2c(F)cncc2NC(=O)[C@@H](N)C(c2ccc(F)cc2)c2ccc(F)cc2)CN[C@@H]1COC(=O)NCC(F)(F)F` [Example 54, 4-fluoro-N-(5-fluoro-4-{2-[(2R,5R,6S)-6-methyl-5-({[(2,2,2-trifluoroethyl)carbamoyl]oxy}methyl)morpholin-2-yl]ethyl}pyridin-3-yl)-β-(4-fluorophenyl)-L-phenylalaninamide], the IC50 falls from 77 nM to 30 nM (2.6-fold). The second is the more potent here.

Going from `C[C@H]1O[C@H](COc2c(F)cncc2NC(=O)[C@@H](N)C(c2ccc(F)cc2)c2ccc(F)cc2)CN[C@@H]1COC(N)=O` [Example 52, N-[4-({(2S,5R,6R)-5-[(carbamoyloxy)methyl]-6-methylmorpholin-2-yl}methoxy)-5-fluoropyridin-3-yl]-4-fluoro-β-(4-fluorophenyl)-L-phenylalaninamide] to `C[C@@H]1O[C@H](CCc2c(F)cncc2NC(=O)[C@@H](N)C(c2ccc(F)cc2)c2ccc(F)cc2)CN[C@@H]1COC(N)=O` [Example 53, N-[4-(2-{(2R,5R,6S)-5-[(carbamoyloxy)methyl]-6-methylmorpholin-2-yl}ethyl)-5-fluoropyridin-3-yl]-4-fluoro-β-(4-fluorophenyl)-L-phenylalaninamide], the IC50 falls from 52 nM to 25 nM (2.1-fold).

Compared with `C[C@H]1O[C@H](CCc2c(F)cccc2NC(=O)[C@@H](N)C(c2ccc(F)cc2)c2ccc(F)cc2)CN[C@@H]1COC(=O)NCc1ccc(F)cc1` [Example 56, 4-fluoro-N-(3-fluoro-2-{2-[(2R,5R,6R)-5-({[(4-fluorobenzyl)carbamoyl]oxy}methyl)-6-methylmorpholin-2-yl]ethyl}phenyl)-β-(4-fluorophenyl)-L-phenylalaninamide], `C[C@@H]1O[C@H](CCc2c(F)cccc2NC(=O)[C@@H](N)C(c2ccc(F)cc2)c2ccc(F)cc2)CN[C@@H]1COC(=O)N[C@@H](c1ccc(F)cc1)C1CC1` [Example 59, N-[2-(2-{(2R,5R,6S)-5-[({[(R)-cyclopropyl(4-fluorophenyl)methyl]carbamoyl}oxy)methyl]-6-methylmorpholin-2-yl}ethyl)-3-fluorophenyl]-4-fluoro-β-(4-fluorophenyl)-L-phenylalaninamide] is 2.4-fold higher in IC50: 7 nM for the first, 17 nM for the second.

Compared with `C[C@H]1O[C@H](CCc2c(F)cncc2NC(=O)[C@@H](N)C(c2ccc(F)cc2)c2ccc(F)cc2)CN[C@@H]1COC(=O)NCC(F)(F)F` [Example 57, 4-fluoro-N-(5-fluoro-4-{2-[(2R,5R,6R)-6-methyl-5-({[(2,2,2-trifluoroethyl)carbamoyl]oxy}methyl)morpholin-2-yl]ethyl}pyridin-3-yl)-β-(4-fluorophenyl)-L-phenylalaninamide], `C[C@@H]1O[C@H](CCc2c(F)cccc2NC(=O)[C@@H](N)C(c2ccc(F)cc2)c2ccc(F)cc2)CN[C@@H]1COC(=O)N[C@H](C)C(F)(F)F` [Example 61, 4-fluoro-N-[3-fluoro-2-(2-{(2R,5R,6S)-6-methyl-5-[({[(1R)-2,2,2-trifluoro-1-methylethyl]carbamoyl}oxy)methyl]morpholin-2-yl}ethyl)phenyl]-β-(4-fluorophenyl)-L-phenylalaninamide] is 2.2-fold lower in IC50: 59 nM for the first, 27 nM for the second. The second is the more potent here.

Compared with `N[C@H](C(=O)Nc1cccc(F)c1OC[C@@H]1CN[C@@H]2c3ccccc3C[C@@H]2O1)C(c1ccccc1)c1ccccc1` [Example 60, N-{3-fluoro-2-[(2S,4aR,9aS)-2,3,4,4a,9,9a-hexahydroindeno [2,1-b][1,4]oxazin-2-ylmethoxy]phenyl}-β-phenyl-L-phenylalaninamide], `O=C(CC(c1ccc(F)cc1)c1ccc(F)cc1)Nc1cccc(F)c1CC[C@@H]1CN[C@H](CO)[C@@H](COC(=O)NCC(F)(F)F)O1` [Example 62] is 3.6-fold lower in IC50: 610 nM for the first, 170 nM for the second.
